Columns and labels:
human GlyT1c transporter = human GlyT1c transporter (Homo sapiens (Human), UniProt P48067); experiment: Radioligand binding assay using recombinant CHO cell membranes expressing human GlyT1; details: examples marked * tested as fumarate salts, read-out: radioligand binding Kiapp
[1] = Metabolic stability in human liver microsomes; assay type: in vitro ADME; details: 0.5 μM test substance, NADPH, 37° C., scaled microsomal clearance, examples marked * tested as fumarate salts
Procedure: Metabolic stability was determined as follows:
0.5 μM test substance was preincubated together with human liver microsomes (0.25 mg of microsomal protein/[…]) in 0.05 M potassium phosphate buffer of pH 7.4 in microtiter plates at 37° C. for 5 min. The reaction was started by adding NADPH (1.0 mM). After 0, 5, 10, 15, 20 and 30 min the reaction was stopped and cooled with twice the amount of quench solution consisting of acetonitrile/methanol 1:1, and containing 0.2 μM carbutamide. The samples were frozen until analyzed. The remaining concentration of undegraded test substance was determined by LC MSMS. The half-life (T1/2) was determined from the gradient of the signal of test substance/unit time plot, al-lowing to calculate the half-life of the test substance, assuming first order kinetics, from the de-crease in the concentration of the compound with time. The microsomal clearance (mClint) was calculated as follows: mClint=((ln(2)/t1/2)/Microsomal Protein Concentration (mg/ml))*1000, leading to the unit of uL/min/mg. The scaled clearance (mClin_scaled) was calculated as mCLint_scaled=m CLint*(Microsomal Yield (mg/kg BW))/1000000*60, leading to the units L/hr/kg. The Microsomal Yield is defined by the specifics of the used microsomes. Calculations were modified from references: Di, The Society for Biomolecular Screening, 2003, 453-462; Obach, DMD, 1999 vol 27. N 11, 1350-1359.

Sequence of human GlyT1c transporter (P48067 whole entry): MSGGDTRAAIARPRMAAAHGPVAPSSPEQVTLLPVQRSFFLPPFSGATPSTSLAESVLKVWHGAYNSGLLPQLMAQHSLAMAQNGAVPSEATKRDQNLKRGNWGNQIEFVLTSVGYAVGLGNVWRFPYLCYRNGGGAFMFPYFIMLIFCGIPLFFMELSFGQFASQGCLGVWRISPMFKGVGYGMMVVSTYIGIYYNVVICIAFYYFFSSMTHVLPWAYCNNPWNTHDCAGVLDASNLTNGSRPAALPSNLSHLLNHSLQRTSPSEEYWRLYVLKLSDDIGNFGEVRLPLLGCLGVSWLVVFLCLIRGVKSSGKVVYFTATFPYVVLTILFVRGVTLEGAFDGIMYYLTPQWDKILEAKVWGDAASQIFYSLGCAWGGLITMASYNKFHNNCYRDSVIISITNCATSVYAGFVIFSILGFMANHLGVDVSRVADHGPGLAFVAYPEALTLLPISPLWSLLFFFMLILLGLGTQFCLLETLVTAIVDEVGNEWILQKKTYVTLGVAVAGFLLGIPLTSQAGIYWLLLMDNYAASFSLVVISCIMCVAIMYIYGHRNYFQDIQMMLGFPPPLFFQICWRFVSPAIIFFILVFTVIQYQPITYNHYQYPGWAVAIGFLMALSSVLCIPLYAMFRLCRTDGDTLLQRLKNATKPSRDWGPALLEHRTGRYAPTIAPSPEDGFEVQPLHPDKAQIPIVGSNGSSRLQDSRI

Row | SMILES | Ki (human GlyT1c transporter) | human mCl [1]
1 | CCCS(=O)(=O)NC1CN(c2ccc3c(c2)C(Cc2ccccc2)C(NC)CO3)C1 (racemic) [Example 11, Cis-N-(1-(4-benzyl-3-(methylamino)chroman-6-yl)azetidin-3-yl)propane-1-sulfonamide] | ≤ 10 nM | ≦5 L/h/Kg
2 | CNC1COc2ccc(N3CC(NS(=O)(=O)CC4CC4)C3)cc2C1Cc1ccccc1 (racemic) [Example 13, Cis-N-(1-(4-benzyl-3-(methylamino)chroman-6-yl)azetidin-3-yl)-1-cyclopropylmethanesulfonamide] | ≤ 10 nM | ≦5 L/h/Kg
3 | CCS(=O)(=O)NC1CN(c2ccc3c(c2)[C@H](Cc2ccccc2)[C@H](N2CCC2)CO3)C1 (relative stereo) [Example 2, Cis-N-(1-(3-(azetidin-1-yl)-4-benzylchroman-6-yl)azetidin-3-yl)ethanesulfonamide] | ≤ 1000 nM | ≦5 L/h/Kg
4 | CCCS(=O)(=O)NC1CN(c2ccc3c(c2)[C@H](Cc2ccccc2)[C@H](N2CCC2)CO3)C1 (relative stereo) [Example 3, Cis-N-(1-(3-(azetidin-1-yl)-4-benzylchroman-6-yl)azetidin-3-yl)propane-1-sulfonamide] | ≤ 100 nM | ≦5 L/h/Kg
5 | O=S(=O)(CC1CC1)NC1CN(c2ccc3c(c2)[C@H](Cc2ccccc2)[C@H](N2CCC2)CO3)C1 (relative stereo) [Example 4, Cis-N-(1-(3-(azetidin-1-yl)-4-benzylchroman-6-yl)azetidin-3-yl)-1-cyclopropylmethanesulfonamide] | ≤ 100 nM | ≦5 L/h/Kg
6 | Cn1cc(S(=O)(=O)NC2CN(c3ccc4c(c3)[C@H](Cc3ccccc3)[C@H](N3CCC3)CO4)C2)cn1 (relative stereo) [Example 5, Cis-N-(1-(3-(azetidin-1-yl)-4-benzylchroman-6-yl)azetidin-3-yl)-1-methyl-1H-pyrazole-4-sulfonamide] | ≤ 100 nM | ≦5 L/h/Kg
7 | Cn1cc(S(=O)(=O)NC2CN(c3ccc4c(c3)[C@H](Cc3ccccc3)[C@H](N3CCC3)CO4)C2)nn1 (relative stereo) [Example 6, Cis-N-(1-(3-(azetidin-1-yl)-4-benzylchroman-6-yl)azetidin-3-yl)-1-methyl-1H-1,2,3-triazole-4-sulfonamide] | ≤ 10 nM | ≦5 L/h/Kg
8 | O=S(=O)(NC1CN(c2cc3c(cc2F)OC[C@@H](N2CCC2)[C@H]3Cc2ccccc2)C1)c1cccnc1F (relative stereo) [Example 8, Cis-N-(1-(3-(azetidin-1-yl)-4-benzyl-7-fluorochroman-6-yl)azetidin-3-yl)-2-fluoropyridine-3-sulfonamide] | ≤ 1000 nM | ≦50 L/h/Kg
9 | O=S(=O)(NC1CN(c2cc3c(cc2F)OC[C@@H](N2CCC2)[C@H]3Cc2ccccc2)C1)c1cccnn1 (relative stereo) [Example 9, Cis-N-(1-(3-(azetidin-1-yl)-4-benzyl-7-fluorochroman-6-yl)azetidin-3-yl)pyridazine-3-sulfonamide] | ≤ 1000 nM | ≦50 L/h/Kg
10 | O=S(=O)(NC1CN(c2ccc3c(c2)[C@H](Cc2ccccc2)[C@H](N2CCC2)CO3)C1)c1cccnc1F (relative stereo) [Example 10, Cis-N-(1-(3-(azetidin-1-yl)-4-benzylchroman-6-yl)azetidin-3-yl)-2-fluoropyridine-3-sulfonamide] | ≤ 100 nM | ≦5 L/h/Kg
11 | CCS(=O)(=O)NC1CN(c2ccc3c(c2)[C@H](Cc2ccccc2)[C@H](NC)CO3)C1 (relative stereo) [Example 12, Cis-N-(1-(-4-benzyl-3-(methylamino)chroman-6-yl)azetidin-3-yl)ethanesulfonamide] | ≤ 100 nM | ≦5 L/h/Kg
12 | CN[C@H]1COc2cc(F)c(N3CC(NS(=O)(=O)c4cn(C)nn4)C3)cc2[C@H]1Cc1ccccc1 (relative stereo) [Example 18a, Cis-N-(1-(4-benzyl-7-fluoro-3-(methylamino)chroman-6-yl)azetidin-3-yl)-1-methyl-1H-1,2,3-triazole-4-sulfonamide] |  | ≦50 L/h/Kg
13 | CN[C@H]1COc2cc(F)c(N3CC(NS(=O)(=O)c4cn(C)nn4)C3)cc2[C@@H]1Cc1ccccc1 (relative stereo) [Example 18b, trans-N-(1-(4-benzyl-7-fluoro-3-(methylamino)chroman-6-yl)azetidin-3-yl)-1-methyl-1H-1,2,3-triazole-4-sulfonamide] |  | ≦5 L/h/Kg
14 | CN[C@H]1COc2cc(F)c(N3CC(NS(=O)(=O)CC4CC4)C3)cc2[C@H]1Cc1ccccc1 (relative stereo) [Example 19a, Cis-N-(1-(4-benzyl-7-fluoro-3-(methylamino)chroman-6-yl)azetidin-3-yl)-1-cyclopropylmethanesulfonamide] |  | ≦50 L/h/Kg
15 | CN[C@H]1COc2cc(F)c(N3CC(NS(=O)(=O)CC4CC4)C3)cc2[C@@H]1Cc1ccccc1 (relative stereo) [Example 19b, trans-N-(1-(4-benzyl-7-fluoro-3-(methylamino)chroman-6-yl)azetidin-3-yl)-1-cyclopropylmethanesulfonamide] |  | ≦50 L/h/Kg
16 | N[C@@H]1COc2ccc(N3CC(NS(=O)(=O)CC4CC4)C3)cc2[C@@H]1Cc1ccccc1 (relative stereo) [Example 21, Cis-N-(1-(3-amino-4-benzylchroman-6-yl)azetidin-3-yl)-1-cyclopropylmethanesulfonamide] | ≤ 10 nM | ≦5 L/h/Kg
17 | O=S(=O)(NC1CN(c2cc3c(cc2F)OC[C@@H](N2CCC2)[C@H]3Cc2ccccc2)C1)c1cncc(F)c1 (relative stereo) [Example 26, Cis-1-(4-benzyl-7-fluoro-6-(3-(5-fluoropyridine-3-sulfonamido)azetidin-1-yl)chroman-3-yl)azetidin-1-ium (E)-3-carboxyacrylate] | ≤ 100 nM | ≦50 L/h/Kg
18 | CCCN[C@@H]1COc2ccc(N3CC(NS(=O)(=O)CCC)C3)cc2[C@@H]1Cc1ccccc1 (relative stereo) [Example 29, Cis-N-(1-(4-benzyl-3-(propylamino)chroman-6-yl)azetidin-3-yl)propane-1-sulfonamide] | ≤ 100 nM | ≦5 L/h/Kg
19 | CCCS(=O)(=O)NC1CN(c2ccc3c(c2)[C@H](Cc2ccccc2)[C@H](N(CC)CC)CO3)C1 (relative stereo) [Example 30, Cis-N-(1-(4-benzyl-3-(diethylamino)chroman-6-yl)azetidin-3-yl)propane-1-sulfonamide] | ≤ 100 nM | ≦50 L/h/Kg
20 | CCCS(=O)(=O)NC1CN(c2ccc3c(c2)[C@H](Cc2ccccc2)[C@H](NCC2CC2)CO3)C1 (relative stereo) [Example 31, Cis-N-(1-(4-benzyl-3-((cyclopropylmethyl)amino)chroman-6-yl)azetidin-3-yl)propane-1-sulfonamide] | ≤ 1000 nM | ≦5 L/h/Kg
21 | CCCS(=O)(=O)NC1CN(c2ccc3c(c2)[C@H](Cc2ccccc2)[C@H](NC2CCC2)CO3)C1 (relative stereo) [Example 32, Cis-N-(1-(4-benzyl-3-(cyclobutylamino)chroman-6-yl)azetidin-3-yl)propane-1-sulfonamide] | ≤ 1000 nM | ≦5 L/h/Kg
22 | CCCS(=O)(=O)NC1CN(c2ccc3c(c2)C(Cc2ccccc2)C(NC)CO3)C1 (single isomer, unassigned) [Example 22, Cis-N-(1-(4-benzyl-3-(methylamino)chroman-6-yl)azetidin-3-yl)propane-1-sulfonamide] | ≤ 10 nM | ≦5 L/h/Kg
23 | CCCS(=O)(=O)NC1CN(c2ccc3c(c2)C(Cc2ccccc2)C(NC)CO3)C1 (single isomer, unassigned) [Example 23, Cis-N-(1-(4-benzyl-3-(methylamino)chroman-6-yl)azetidin-3-yl)propane-1-sulfonamide] | ≤ 1000 nM | ≦50 L/h/Kg
24 | CNC1COc2ccc(N3CC(NS(=O)(=O)CC4CC4)C3)cc2C1Cc1ccccc1 (single isomer, unassigned) [Example 24, Cis-N-(1-(4-benzyl-3-(methylamino)chroman-6-yl)azetidin-3-yl)-1-cyclopropylmethanesulfonamide] | ≤ 10 nM | ≦50 L/h/Kg
25 | CNC1COc2ccc(N3CC(NS(=O)(=O)CC4CC4)C3)cc2C1Cc1ccccc1 (single isomer, unassigned) [Example 25, Cis-N-(1-(4-benzyl-3-(methylamino)chroman-6-yl)azetidin-3-yl)-1-cyclopropylmethanesulfonamide] | ≤ 1000 nM | ≦5 L/h/Kg
26 | CCCS(=O)(=O)NC1CN(c2cc3c(cc2F)OCC(NC)C3Cc2ccccc2)C1 (single isomer, unassigned) [Example 27, Cis-N-(1-(4-benzyl-7-fluoro-3-(methylamino)chroman-6-yl)azetidin-3-yl)propane-1-sulfonamide] | ≤ 10 nM | ≦50 L/h/Kg
27 | CCCS(=O)(=O)NC1CN(c2cc3c(cc2F)OCC(NC)C3Cc2ccccc2)C1 (single isomer, unassigned) [Example 28, Cis-N-(1-(4-benzyl-7-fluoro-3-(methylamino)chroman-6-yl)azetidin-3-yl)propane-1-sulfonamide] | ≤ 100 nM | ≦5 L/h/Kg
